# In article PMC5247395 (EJNMMI Research, 2017):
# What was measured:
# [1] = system: PC-3 PIP/flu tumor-bearing mice; experiment: Biodistribution in PC-3 PIP/flu tumor-bearing mice; conditions: i.v.; for PC-3 flu Tumor: PSMA^neg xenograft; for PC-3 PIP Tumor: PSMA^pos xenograft
# Method: In vivo experiments were approved by the local veterinarian department and conducted in accordance with the Swiss law of animal protection. All mice were obtained from Charles River Laboratories (Sulzfeld, Germany), at the age of 5–6 weeks. Female, athymic nude Balb/c mice were subcutaneously inoculated with PC-3 PIP cells (6 × 10^6 cells in 100 μL Hank’s balanced salt solution (HBSS) with Ca^2+/Mg^2+) on the right shoulder and with PC-3 flu cells (5 × 10^6 cells in 100 μL HBSS with Ca^2+/Mg^2+) on the left shoulder 2 weeks before the performance of the experiments.
# Mice were sacrificed at different time points post injection (p.i.) of the radioligands. Selected tissues and organs were collected, weighed and measured using a γ-counter. The results were decay-corrected and listed as a percentage of the injected activity per gram of tissue mass (% IA/g).
# [2] = n-octanol/PBS distribution coefficient (shake-flask); assay type: physicochemical; conditions: n-octanol/PBS pH 7.4, shake-flask
# Method: The distribution coefficients (logD values) of the radioligands were determined by a shake-flask method using liquid-liquid extraction followed by phase separation, as previously reported (Additional file 1). In brief, the PSMA ligands were labeled at a specific activity of 5 MBq/nmol. […] The vials were vortexed vigorously for 1 min and then centrifuged for 6 min for phase separation. The concentration of radioactivity in a defined volume of each layer was measured in a γ-counter (Perkin Elmer, Wallac Wizard 1480). The distribution coefficients were expressed as the logarithm of the ratio of counts per minute (cpm) measured in the n-octanol phase to the cpm measure in the PBS phase. The values are reported as the average of at least three independent measurements (± standard deviation, SD), each performed with five replicates. Data were analyzed for significance using a one-way ANOVA test (GraphPad Prism software, version 7). A p value of <0.05 was considered as statistically significant.
# PSMA = biological target: T1, PSMA (Homo sapiens, UniProt Q04609); experiment: Saturation binding assay on PC-3 PIP cells (PSMA affinity, KD); conditions: for Kd: 30 min at 4 °C, saturation binding; for Relative PSMA-binding affinity: inverse molar ratio of average KD values, ^177Lu-PSMA-617 set to 1
# T1 construct: expressed in transfected cells; host or cells: PC-3 PIP cells (PSMA-positive subline of human PC-3 prostate cancer cells), provided by Prof; Martin Pomper, Johns Hopkins
# T1 sequence (Q04609 whole entry): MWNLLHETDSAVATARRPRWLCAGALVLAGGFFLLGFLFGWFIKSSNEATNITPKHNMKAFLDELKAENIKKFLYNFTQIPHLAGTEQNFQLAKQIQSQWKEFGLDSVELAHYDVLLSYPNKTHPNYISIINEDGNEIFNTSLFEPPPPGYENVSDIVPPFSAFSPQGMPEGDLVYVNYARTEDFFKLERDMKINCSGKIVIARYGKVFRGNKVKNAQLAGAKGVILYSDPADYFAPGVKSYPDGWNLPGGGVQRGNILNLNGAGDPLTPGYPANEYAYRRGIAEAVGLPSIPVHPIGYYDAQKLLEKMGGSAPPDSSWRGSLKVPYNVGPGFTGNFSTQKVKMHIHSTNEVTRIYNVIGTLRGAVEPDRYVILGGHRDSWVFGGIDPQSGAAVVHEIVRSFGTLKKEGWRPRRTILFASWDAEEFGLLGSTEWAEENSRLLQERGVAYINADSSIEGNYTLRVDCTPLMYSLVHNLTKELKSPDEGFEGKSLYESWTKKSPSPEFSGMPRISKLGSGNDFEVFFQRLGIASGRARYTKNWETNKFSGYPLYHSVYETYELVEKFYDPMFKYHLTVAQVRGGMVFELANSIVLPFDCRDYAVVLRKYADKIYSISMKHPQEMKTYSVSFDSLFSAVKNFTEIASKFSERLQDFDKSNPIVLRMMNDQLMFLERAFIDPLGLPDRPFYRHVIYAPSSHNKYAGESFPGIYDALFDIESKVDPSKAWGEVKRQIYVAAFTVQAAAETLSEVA
# Method: Determination of the PSMA affinity was performed by saturation binding assays using PC-3 PIP cells and different concentrations of ^nat/44Sc-, ^nat/177Lu-, ^nat/68Ga-PSMA-617, or ^nat/68Ga-PSMA-11, respectively (Additional file 1).
# Determination of the KD values was performed by saturation binding assays using PSMA^pos PC-3 PIP cells. After successful radiolabeling of the PSMA ligands, a 2.5-fold molar excess of the corresponding cold metal was added and the reaction mixture was incubated for another 10 min at 95 °C. Quality control was performed again after reaction of the radioligands with the “cold” metal as described in the main manuscript.
# The cells were seeded in 48-well-plates (8 x 10^5 cells in 500 uL RPMI medium/well) allowing adhesion and growth overnight at 37 °C and 5% CO2. For the entire experiment, the well-plates were kept on ice. After removal of the supernatant, the cells were washed once with ice-cold PBS pH 7.4 prior to the addition of different concentrations (1 nM-2 µM) of either ^nat/44Sc-, ^nat/177Lu-, ^nat/67/68Ga-PSMA-617 or ^nat/67/68Ga-PSMA-11 in ice-cold RPMI medium without supplements. For the determination of non-specific binding, cell samples were incubated with 2-phosphonomethyl pentanedioic acid (2-PMPA, 200 μM). The well-plates were incubated for 30 min at 4 °C. Then, the supernatants were removed and the cells washed twice with ice-cold PBS followed by addition of NaOH (1 M, 600 µL) to each well. The cell suspensions were transferred to 4 mL tubes for measurement in a γ-counter (Wallac Wizard 1480, Perkin Elmer). The KD values were determined by plotting specific-binding (total binding minus unspecific binding) against the molar concentration of the added radioligands followed by nonlinear regression analysis using GraphPad Prism 7 software.
# [3] = system: PC-3 PIP/flu tumor-bearing mice; experiment: PET/CT and SPECT/CT imaging of PC-3 PIP/flu tumor-bearing mice; assay type: in vivo; conditions: 2 h after injection
# Method: PET/CT scans were performed using a small-animal bench-top PET/CT scanner (G8, Sofie Biosciences, Culver City, California, USA, and Perkin Elmer, Massachusetts, USA) and a small-animal SPECT/CT scanner (NanoSPECT/CT^TM, Mediso Medical Imaging Systems, Budapest, Hungary), respectively (Additional file 1). During the scans, the mice were anesthetized with a mixture of isoflurane and oxygen.
# The PET scans were followed by a CT of 1.5 min. The SPECT scan of 45 min duration was performed 2 h after injection of ^177Lu-PSMA-617 (~50 MBq, 1 nmol) followed by a CT of 7.5 min. Reconstruction of the acquired data was performed by using the software of the respective scanner.
# All images were prepared using VivoQuant post-processing software (version 2.10, inviCRO Imaging Services and Software, Boston USA). A Gauss post-reconstruction filter (full width at half maximum = 1 mm) was applied to the images, which were presented with the scale adjusted to allow visualization of the most important organs and tissues, usually by cutting 0.5–1% of the lower scale.
# PET/CT scans were performed with a small-animal bench-top PET/CT scanner (G8, Sofie Biosciences, Culver City, California, U.S. and Perkin Elmer, Massachusetts, U.S.). The energy window ranged from 150 keV to 650 keV. […]
structure (smiles),measurement,setting,value
O=C([O-])CN(CCN(CC(=O)[O-])Cc1cc(CCC(=O)NCCCCCC(=O)NCCCC[C@H](NC(=O)N[C@@H](CCC(=O)O)C(=O)O)C(=O)O)ccc1[O-])Cc1cc(CCC(=O)O)ccc1[O-].[68Ga+3] [^68Ga-PSMA-11],Blood,[1]; 15 min p.i.,5.05 ± 0.58 % IA/g
same,Bone,[1]; 15 min p.i.,1.85 ± 0.20 % IA/g
same,Heart,[1]; 15 min p.i.,2.45 ± 0.29 % IA/g
same,Intestines,[1]; 15 min p.i.,1.42 ± 0.07 % IA/g
same,Kidneys,[1]; 15 min p.i.,74.7 ± 7.02 % IA/g
same,Liver,[1]; 15 min p.i.,2.00 ± 0.32 % IA/g
same,Lung,[1]; 15 min p.i.,3.87 ± 0.22 % IA/g
same,Muscle,[1]; 15 min p.i.,1.21 ± 0.11 % IA/g
same,Salivary glands,[1]; 15 min p.i.,2.73 ± 0.27 % IA/g
same,Spleen,[1]; 15 min p.i.,5.33 ± 1.78 % IA/g
same,Stomach,[1]; 15 min p.i.,1.42 ± 0.15 % IA/g
same,PC-3 flu Tumor,[1]; 15 min p.i.,2.19 ± 0.05 % IA/g
same,PC-3 PIP Tumor,[1]; 15 min p.i.,31.5 ± 13.0 % IA/g
same,Blood,[1]; 30 min p.i.,2.55 ± 0.72 % IA/g
same,Bone,[1]; 30 min p.i.,0.81 ± 0.14 % IA/g
same,Heart,[1]; 30 min p.i.,1.31 ± 0.19 % IA/g
same,Intestines,[1]; 30 min p.i.,1.20 ± 0.24 % IA/g
same,Kidneys,[1]; 30 min p.i.,86.7 ± 14.6 % IA/g
same,Liver,[1]; 30 min p.i.,1.55 ± 0.04 % IA/g
same,Lung,[1]; 30 min p.i.,2.23 ± 0.33 % IA/g
same,Muscle,[1]; 30 min p.i.,0.67 ± 0.06 % IA/g
same,Salivary glands,[1]; 30 min p.i.,1.59 ± 0.18 % IA/g
same,Spleen,[1]; 30 min p.i.,4.76 ± 1.13 % IA/g
same,Stomach,[1]; 30 min p.i.,0.85 ± 0.19 % IA/g
same,PC-3 flu Tumor,[1]; 30 min p.i.,1.04 ± 0.17 % IA/g
same,PC-3 PIP Tumor,[1]; 30 min p.i.,49.3 ± 4.97 % IA/g
same,Blood,[1]; 2 h p.i.,0.08 ± 0.01 % IA/g
same,Bone,[1]; 2 h p.i.,0.06 ± 0.00 % IA/g
same,Heart,[1]; 2 h p.i.,0.18 ± 0.03 % IA/g
same,Intestines,[1]; 2 h p.i.,0.95 ± 0.86 % IA/g
same,Kidneys,[1]; 2 h p.i.,58.8 ± 7.62 % IA/g
same,Liver,[1]; 2 h p.i.,0.56 ± 0.04 % IA/g
same,Lung,[1]; 2 h p.i.,0.31 ± 0.10 % IA/g
same,Muscle,[1]; 2 h p.i.,0.06 ± 0.01 % IA/g
same,Salivary glands,[1]; 2 h p.i.,0.39 ± 0.01 % IA/g
same,Spleen,[1]; 2 h p.i.,2.18 ± 0.38 % IA/g
same,Stomach,[1]; 2 h p.i.,0.35 ± 0.17 % IA/g
same,PC-3 flu Tumor,[1]; 2 h p.i.,0.13 ± 0.02 % IA/g
same,PC-3 PIP Tumor,[1]; 2 h p.i.,40.0 ± 2.55 % IA/g
same,LogD values,[2],−4.82 ± 0.07
same,Kd,PSMA,87 ± 27 nM
same,Relative PSMA-binding affinity,PSMA,0.4
same,accumulation in the kidneys on PET/CT images vs. the other radioligands,[3],significantly higher extent
O=C([O-])CN1CCN(CC(=O)[O-])CCN(CC(=O)NCC2CCC(C(=O)NC(Cc3ccc4ccccc4c3)C(=O)NCCCCC(NC(=O)NC(CCC(=O)O)C(=O)O)C(=O)O)CC2)CCN(CC(=O)[O-])CC1.[68Ga+3] (stereo not shown) [^68Ga-PSMA-617],Blood,[1]; 15 min p.i.,6.88 ± 0.89 % IA/g
same,Bone,[1]; 15 min p.i.,1.72 ± 0.06 % IA/g
same,Heart,[1]; 15 min p.i.,2.61 ± 0.49 % IA/g
same,Intestines,[1]; 15 min p.i.,1.55 ± 0.19 % IA/g
same,Kidneys,[1]; 15 min p.i.,22.8 ± 0.81 % IA/g
same,Liver,[1]; 15 min p.i.,4.74 ± 0.43 % IA/g
same,Lung,[1]; 15 min p.i.,4.70 ± 0.09 % IA/g
same,Muscle,[1]; 15 min p.i.,1.53 ± 0.24 % IA/g
same,Salivary glands,[1]; 15 min p.i.,2.30 ± 0.37 % IA/g
same,Spleen,[1]; 15 min p.i.,3.92 ± 0.28 % IA/g
same,Stomach,[1]; 15 min p.i.,1.48 ± 0.09 % IA/g
same,PC-3 flu Tumor,[1]; 15 min p.i.,2.30 ± 0.18 % IA/g
same,PC-3 PIP Tumor,[1]; 15 min p.i.,28.7 ± 5.26 % IA/g
same,Blood,[1]; 30 min p.i.,3.46 ± 0.98 % IA/g
same,Bone,[1]; 30 min p.i.,1.00 ± 0.17 % IA/g
same,Heart,[1]; 30 min p.i.,1.47 ± 0.34 % IA/g
same,Intestines,[1]; 30 min p.i.,0.98 ± 0.28 % IA/g
same,Kidneys,[1]; 30 min p.i.,15.5 ± 3.46 % IA/g
same,Liver,[1]; 30 min p.i.,2.91 ± 0.65 % IA/g
same,Lung,[1]; 30 min p.i.,2.55 ± 0.51 % IA/g
same,Muscle,[1]; 30 min p.i.,0.80 ± 0.10 % IA/g
same,Salivary glands,[1]; 30 min p.i.,1.06 ± 0.23 % IA/g
same,Spleen,[1]; 30 min p.i.,2.50 ± 0.82 % IA/g
same,Stomach,[1]; 30 min p.i.,1.09 ± 0.40 % IA/g
same,PC-3 flu Tumor,[1]; 30 min p.i.,1.23 ± 0.35 % IA/g
same,PC-3 PIP Tumor,[1]; 30 min p.i.,48.5 ± 8.51 % IA/g
same,Blood,[1]; 2 h p.i.,0.14 ± 0.00 % IA/g
same,Bone,[1]; 2 h p.i.,0.09 ± 0.02 % IA/g
same,Heart,[1]; 2 h p.i.,0.09 ± 0.01 % IA/g
same,Intestines,[1]; 2 h p.i.,0.12 ± 0.03 % IA/g
same,Kidneys,[1]; 2 h p.i.,3.48 ± 0.18 % IA/g
same,Liver,[1]; 2 h p.i.,1.60 ± 0.05 % IA/g
same,Lung,[1]; 2 h p.i.,0.20 ± 0.00 % IA/g
same,Muscle,[1]; 2 h p.i.,0.05 ± 0.01 % IA/g
same,Salivary glands,[1]; 2 h p.i.,0.14 ± 0.03 % IA/g
same,Spleen,[1]; 2 h p.i.,0.91 ± 0.14 % IA/g
same,Stomach,[1]; 2 h p.i.,0.16 ± 0.11 % IA/g
same,PC-3 flu Tumor,[1]; 2 h p.i.,0.18 ± 0.03 % IA/g
same,PC-3 PIP Tumor,[1]; 2 h p.i.,55.8 ± 14.2 % IA/g
same,LogD values,[2],−4.30 ± 0.10
same,Kd,PSMA,72 ± 29 nM
same,Relative PSMA-binding affinity,PSMA,0.5
